The first test addresses T1, F508del (Homo sapiens, UniProt P13569, DEL508-508).
T1 construct: expressed in transfected cells
As to the kind of experiment: Protocol 2: FRET membrane potential optical assay (VIPR), identification of correction compounds. It is filed as cell-based. The conditions noted are these: F508del CFTR modulator activity; compounds of Table 1. The text has this: Membrane potential optical methods for assaying F508del modulation properties of compounds.
These voltage sensitive assays are based on the change in fluorescence resonant energy transfer (FRET) between the membrane-soluble, voltage-sensitive dye, DiSBAC2(3), and a fluorescent phospholipid, CC2-DMPE, which is attached to the outer leaflet of the plasma membrane and acts as a FRET donor. Changes in membrane potential (Vm) cause the negatively charged DiSBAC2(3) to redistribute across the plasma membrane and the amount of energy transfer from CC2-DMPE changes accordingly. The changes in fluorescence emission were monitored using VIPR™ II, which is an integrated liquid handler and fluorescent detector designed to conduct cell-based screens in 96- or 384-well microtiter plates.
To identify small molecules that correct the trafficking defect associated with F508del; a single-addition HTS assay format was developed. The cells were incubated in serum-free medium for 16 hrs at 37° C. in the presence or absence (negative control) of test compound. As a positive control, cells plated in 384-well plates were incubated for 16 hrs at 27° C. to “temperature-correct” F508del. The cells were subsequently rinsed 3× with Krebs Ringers solution and loaded with the voltage-sensitive dyes. To activate F508del, 10 μM forskolin and the CFTR potentiator, genistein (20 μM), were added along with Cl^−-free medium to each well. The addition of Cl^−-free medium promoted Cl^− efflux in response to F508del activation and the resulting membrane depolarization was optically monitored using the FRET-based voltage-sensor dyes.
• Bath Solution #1: (in mM) NaCl 160, KCl 4.5, CaCl2 2, MgCl2 1, HEPES 10, pH 7.4 with NaOH. • Chloride-free bath solution: Chloride salts in Bath Solution #1 (above) are substituted with gluconate salts. • CC2-DMPE: Prepared as a 10 mM stock solution in DMSO and stored at −20° C. • DiSBAC2(3): Prepared as a 10 mM stock in DMSO and stored at −20° C. Cell Culture
NIH3T3 mouse fibroblasts stably expressing F508del are used for optical measurements of membrane potential. The cells are maintained at 37° C. in 5% CO2 and 90% humidity in Dulbecco's modified Eagle's medium supplemented with 2 mM glutamine, 10% fetal bovine serum, 1×NEAA, β-ME, 1× pen/strep, and 25 mM HEPES in 175 cm^2 culture flasks. For all optical assays, the cells were seeded at 30,000/well in 384-well matrigel-coated plates and cultured for 2 hrs at 37° C. before culturing at 27° C. for 24 hrs for the potentiator assay. For the correction assays, the cells are cultured at 27° C. or 37° C. with and without compounds for 16-24 hours.
T1 sequence (P13569 with tags, fused parts or gaps DEL508-508): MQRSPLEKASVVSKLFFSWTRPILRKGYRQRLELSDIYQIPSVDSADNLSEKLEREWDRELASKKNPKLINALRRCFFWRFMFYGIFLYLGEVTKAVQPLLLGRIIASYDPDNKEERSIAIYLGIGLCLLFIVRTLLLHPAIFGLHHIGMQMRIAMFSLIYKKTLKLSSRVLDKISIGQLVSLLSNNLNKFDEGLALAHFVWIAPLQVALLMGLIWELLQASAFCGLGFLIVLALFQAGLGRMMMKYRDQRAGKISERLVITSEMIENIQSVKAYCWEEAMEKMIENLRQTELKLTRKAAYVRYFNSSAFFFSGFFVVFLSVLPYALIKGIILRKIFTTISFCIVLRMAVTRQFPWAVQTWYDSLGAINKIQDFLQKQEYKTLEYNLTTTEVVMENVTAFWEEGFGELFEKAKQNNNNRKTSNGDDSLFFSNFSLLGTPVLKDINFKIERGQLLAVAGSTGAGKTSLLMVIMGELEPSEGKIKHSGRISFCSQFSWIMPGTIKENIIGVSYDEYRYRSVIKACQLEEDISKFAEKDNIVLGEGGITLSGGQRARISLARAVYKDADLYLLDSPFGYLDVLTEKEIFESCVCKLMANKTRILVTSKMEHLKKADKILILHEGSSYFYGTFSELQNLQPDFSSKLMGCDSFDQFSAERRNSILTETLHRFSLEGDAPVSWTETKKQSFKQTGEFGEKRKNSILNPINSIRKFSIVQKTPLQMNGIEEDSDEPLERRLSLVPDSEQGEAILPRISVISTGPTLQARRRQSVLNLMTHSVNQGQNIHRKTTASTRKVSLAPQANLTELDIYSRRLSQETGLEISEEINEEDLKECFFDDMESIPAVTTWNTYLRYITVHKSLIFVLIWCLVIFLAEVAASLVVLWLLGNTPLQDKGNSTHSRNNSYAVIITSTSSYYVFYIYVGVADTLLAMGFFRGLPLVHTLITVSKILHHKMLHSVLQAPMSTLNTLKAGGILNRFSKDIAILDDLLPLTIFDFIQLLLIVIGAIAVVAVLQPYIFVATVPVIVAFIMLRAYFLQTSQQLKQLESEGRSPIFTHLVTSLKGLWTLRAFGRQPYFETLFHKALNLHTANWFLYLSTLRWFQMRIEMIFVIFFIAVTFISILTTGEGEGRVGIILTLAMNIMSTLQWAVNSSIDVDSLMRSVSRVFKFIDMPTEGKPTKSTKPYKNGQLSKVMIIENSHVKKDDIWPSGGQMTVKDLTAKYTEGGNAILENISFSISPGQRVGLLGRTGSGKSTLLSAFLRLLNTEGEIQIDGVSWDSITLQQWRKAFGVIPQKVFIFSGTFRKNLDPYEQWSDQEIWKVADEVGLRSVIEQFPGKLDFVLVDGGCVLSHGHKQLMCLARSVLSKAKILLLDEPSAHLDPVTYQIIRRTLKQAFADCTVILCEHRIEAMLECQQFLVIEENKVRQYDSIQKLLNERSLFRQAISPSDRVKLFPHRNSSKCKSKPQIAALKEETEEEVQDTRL
As for `CC(C)COc1cc(F)cc(-c2ccc(C(=O)NS(=O)(=O)c3cccc(N)n3)c(N3CC(C)CC34CCC4)n2)c1` (single isomer, unassigned) [Compound 2552, N-[(6-amino-2-pyridyl)sulfonyl]-6-(3-fluoro-5-isobutoxy-phenyl)-2-(6-methyl-8-azaspiro[3.4]octa N-8-yl)pyridine-3-carboxamide], the EC30 entry is “+++ (“+++” means <3 uM)”.

Still in this test, the particulars now being: F508del CFTR modulator activity; compounds of Table 1; read-out: EC30.
As to `CC1CN(c2ncc(-c3cccc(Cl)c3)cc2C(=O)NS(=O)(=O)c2cccc(N)n2)C(C)(C)C1` (stereo not shown) [Compound 2429, N-[(6-amino-2-pyridyl)sulfonyl]-5-(3-chlorophenyl)-2-(2,2,4-trimethylpyrrolidin-1-yl)pyridine-3-carboxamide], the EC30 is < 3000 nM.
In the case of `Cc1cccc(Nc2cccc(S(=O)(=O)NC(=O)c3cccnc3N3CC(C)CC3(C)C)n2)c1` (stereo not shown) [Compound 2572, N—[[6-(3-methylanilino)-2-pyridyl]sulfonyl]-2-(2,2,4-trimethylpyrrolidin-1-yl)pyridine-3-carboxamide], the EC30 is < 3000 nM.
Take `CC1CN(c2ncccc2C(=O)NS(=O)(=O)c2cccc(Oc3ccc(N)cc3)n2)C(C)(C)C1` (stereo not shown) [Compound 2314, N—[[6-(4-aminophenoxy)-2-pyridyl]sulfonyl]-2-(2,2,4-trimethylpyrrolidin-1-yl)pyridine-3-carboxamide]: the EC30 was in the range of 3000 to 10000 nM.
Consider `CCOc1cc(F)cc(-c2ccc(C(=O)NS(=O)(=O)c3cccnc3N)c(N3C[C@@H](C)CC3(C)C)n2)c1` [Compound 2018, N-[(2-amino-3-pyridyl)sulfonyl]-6-(3-ethoxy-5-fluoro-phenyl)-2-[(4S)-2,2,4-trimethylpyrrolidin-1-yl]pyridine-3-carboxamide], for which the EC30 is < 3000 nM.
Turning to `CC(C)COc1cc(F)cc(-c2ccc(C(=O)NS(=O)(=O)N3CCC(N)C3)c(N3CCCC3c3ccccc3)n2)c1` (single isomer, unassigned) [Compound 2477], the EC30 is < 3000 nM.
Turning to `Cc1cc(F)cc(-c2ccc(C(=O)NS(=O)(=O)c3cccc(N)n3)c(N3C[C@@H](C)CC3(C)C)n2)c1` [Compound 2638, N-[(6-amino-2-pyridyl)sulfonyl]-6-(3-fluoro-5-methyl-phenyl)-2-[(4S)-2,2,4-trimethylpyrrolidin-1-yl]pyridine-3-carboxamide], the EC30 was < 3000 nM.
With `CC1CN(c2ncccc2C(=O)NS(=O)(=O)c2cccc(OCc3cccc4ccccc34)n2)C(C)(C)C1` (stereo not shown) [Compound 2270, N—[[6-(1-naphthylmethoxy)-2-pyridyl]sulfonyl]-2-(2,2,4-trimethylpyrrolidin-1-yl)pyridine-3-carboxamide], the EC30 was < 3000 nM.
Same read-out and setting: to `C[C@@H]1CN(c2nc(-c3cccc(F)c3F)ccc2C(=O)NS(=O)(=O)c2cccnc2N)C(C)(C)C1` [Compound 2291, N-[(2-amino-3-pyridyl)sulfonyl]-6-(2,3-difluorophenyl)-2-[(4S)-2,2,4-trimethylpyrrolidin-1-yl]pyridine-3-carboxamide] belongs < 3000 nM; to `CC(C)COc1cc(F)cc(-c2ccc(C(=O)N(C)S(=O)(=O)c3cccc(N)n3)c(N3C[C@@H](C)CC3(C)C)n2)c1` [Compound 2258, N-[(6-amino-2-pyridyl)sulfonyl]-6-(3-fluoro-5-isobutoxy-phenyl)-N-methyl-2-[(4S)-2,2,4-trimethylpyrrolidin-1-yl]pyridine-3-carboxamide], < 3000 nM.
As to `C[C@@H]1CN(c2nc(-c3ccc4c(c3)OC(F)(F)O4)ccc2C(=O)NS(=O)(=O)c2cccc(N)n2)C(C)(C)C1` [Compound 2104, N-[(6-amino-2-pyridyl)sulfonyl]-6-(2,2-difluoro-1,3-benzodioxol-5-yl)-2-[(4S)-2,2,4-trimethylpyrrolidin-1-yl]pyridine-3-carboxamide], the 30% effect concentration (EC30) is < 3000 nM.
Regarding `CC1CN(c2ncccc2C(=O)NS(=O)(=O)c2cccc(OCc3ccc(-n4cccn4)cc3)n2)C(C)(C)C1` (stereo not shown) [Compound 2118, N—[[6-[(4-pyrazol-1-ylphenyl)methoxy]-2-pyridyl]sulfonyl]-2-(2,2,4-trimethylpyrrolidin-1-yl)pyridine-3-carboxamide], the EC30 is < 3000 nM.
For the compound `Cc1cccc(-c2ccc(C(=O)NS(=O)(=O)N3CC[C@H](N)C3)c(N3C[C@@H](C)CC3(C)C)n2)c1` [Compound 2339, N-[(3S)-3-aminopyrrolidin-1-yl]sulfonyl-6-(m-tolyl)-2-[(4S)-2,2,4-trimethylpyrrolidin-1-yl]pyridine-3-carboxamide], the 30% effect concentration (EC30) is < 3000 nM.

Staying with this test, now noted: Table 3; compounds of Table 1 as modulators of CFTR activity; protocol not stated.
As for `Cc1cc(C)c(Oc2nc(C3CCC(C)CC3)ccc2C(=O)NS(=O)(=O)c2cccc(N)n2)c(C)c1` (stereo not shown) [Compound 172, N-[(6-amino-2-pyridyl)sulfonyl]-6-(4-methylcyclohexyl)-2-(2,4,6-trimethylphenoxy)pyridine-3-carboxamide], the EC30 result was “+++ (“+++” means <3 uM)”.
On the same count and under the same terms, for `CC1CCN(c2nc(C(C)(C)C)ccc2C(=O)NS(=O)(=O)c2cccc(N)n2)CC1` [Compound 794, N-[(6-amino-2-pyridyl)sulfonyl]-6-tert-butyl-2-(4-methyl-1-piperidyl)pyridine-3-carboxamide] the value was “+++ (“+++” means <3 uM)”; for `Cc1cc(C)c(Oc2nc(C)ccc2C(=O)NS(=O)(=O)c2cccc(NC3CC3)n2)c(C)c1` [Compound 594, N-[[6-(cyclopropylamino)-2-pyridyl]sulfonyl]-6-methyl-2-(2,4,6-trimethylphenoxy)pyridine-3-carboxamide], “++ (“++” means between 3 uM and 10 uM)”; for `CC(C)COc1cc(F)cc(-c2ccc(C(=O)NS(=O)(=O)c3ccn[nH]3)c(N3CCC(C)C(C)C3)n2)c1` (stereo not shown) [Compound 528, 2-(3,4-dimethyl-1-piperidyl)-6-(3-fluoro-5-isobutoxy-phenyl)-N-(1H-pyrazol-5-ylsulfonyl)pyridine-3-carboxamide], “+++ (“+++” means <3 uM)”.
Regarding `Cc1cc(C)c(Cn2c(C(=O)NS(=O)(=O)c3ccncc3)cc3ccccc32)c(C)c1` [Compound 227, N-(4-pyridylsulfonyl)-1-[(2,4,6-trimethylphenyl)methyl]indole-2-carboxamide], the EC30 result is “++ (“++” means between 3 uM and 10 uM)”.
As for `Cc1cc(C)c(Oc2nc(C(C)(C)C)ccc2C(=O)NS(=O)(=O)c2ccc[nH]c2=O)c(C)c1` [Compound 51, 6-tert-butyl-N-[(2-oxo-1H-pyridin-3-yl)sulfonyl]-2-(2,4,6-trimethylphenoxy)pyridine-3-carboxamide], the EC30 entry is given as “+++ (“+++” means <3 uM)”.
On to `Cc1cc(C)c(Oc2nc(-c3cc(F)cc(OCC(C)C)c3)ccc2C(=O)NS(=O)(=O)c2cccc(N)n2)c(C)c1` [Compound 196, N-[(6-amino-2-pyridyl)sulfonyl]-6-(3-fluoro-5-isobutoxy-phenyl)-2-(2,4,6-trimethylphenoxy)pyridine-3-carboxamide], for which the EC30 entry is “+++ (“+++” means <3 uM)”.
With `COc1ccc2cc(C(=O)NS(=O)(=O)c3cccc(N)c3)n(Cc3c(C)cccc3C)c2c1` [Compound 116, N-(3-aminophenyl)sulfonyl-1-[(2,6-dimethylphenyl)methyl]-6-methoxy-indole-2-carboxamide], the EC30 entry is “++ (“++” means between 3 uM and 10 uM)”.
Still for that read-out and setting: for `Cc1cc(C)c(Oc2nc(C(C)(C)C)ccc2C(=O)NS(=O)(=O)c2ccn[nH]2)c(C)c1` [Compound 214, 6-tert-butyl-N-(1H-pyrazol-5-ylsulfonyl)-2-(2,4,6-trimethylphenoxy)pyridine-3-carboxamide] the value was “+++ (“+++” means <3 uM)”.
On the same count and under the same terms, for `Cc1cccc(C)c1Cn1nc(C(C)(C)C)cc1C(=O)NS(=O)(=O)c1cccc(N)c1` [Compound 185, N-(3-aminophenyl)sulfonyl-5-tert-butyl-2-[(2,6-dimethylphenyl)methyl]pyrazole-3-carboxamide] the value was “+++ (“+++” means <3 uM)”; for `Cc1cc(C)c(Oc2nc(NC(C)C)ccc2C(=O)NS(=O)(=O)c2cccc(N)n2)c(C)c1` [Compound 650, N-[(6-amino-2-pyridyl)sulfonyl]-6-(isopropylamino)-2-(2,4,6-trimethylphenoxy)pyridine-3-carboxamide], “++ (“++” means between 3 uM and 10 uM)”.
The same measure, in the same setting: to `C[C@@H](c1ccccc1)n1nc(C(C)(C)C)cc1C(=O)NS(=O)(=O)c1cccc(N)c1` [Compound 138, N-(3-aminophenyl)sulfonyl-5-tert-butyl-2-[(1S)-1-phenylethyl]pyrazole-3-carboxamide] belongs “++ (“++” means between 3 uM and 10 uM)”.

The term EC30 denotes the concentration needed for an effect of 30%.

These data come from US10758534B2 (Vertex Pharmaceuticals Incorporated, priority 2014, dated 2020).
